{"source": "patent US6914045B2", "about": "“Glycopeptide antibiotics” (Wyeth Holdings Corporation, priority 2001, dated 2005)", "assay_in_all_cases": "in vitro antibacterial evaluation, MIC by broth dilution", "assay_type_in_all_cases": "cell-based", "key": {"[1]": {"tested_on": "Enterococcus sp.", "details": "broth dilution, 18 hours at 35° C.", "procedure,_shortened": "(§1)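 Broth dilution per NCCLS standard M7-A2 in Muller-Hinton II […], with an inoculum of 5×10^5 CFU/mL and antibiotic spanning 64-0.06 μg/mL. The MIC is the lowest concentration that inhibits growth of the organism.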"}, "[2]": {"tested_on": "Staphylococcus sp.", "details": "broth dilution, 18 hours at 35° C.", "procedure,_shortened": "as §1"}, "[3]": {"tested_on": "Streptococcus sp.", "details": "broth dilution, 18 hours at 35° C.", "procedure,_shortened": "as §1"}, "[4]": {"tested_on": "Escherichia coli", "details": "18 hours at 35° C."}}, "data": [{"smiles": "CC(c1ccccc1)C1NC(=O)CNC(=O)C(CO)NC(=O)C(CC2CNC(=N)N2C2OC(CO)C(O)C(O)C2O)NC(=O)C(CC2CNC(=N)N2)NC(=O)C(Cc2ccc(OC3OC(CO)C(OC4OC(CO)C(OCc5ccc(OCc6ccccc6)cc5)C(O)C4O)C(O)C3O)cc2)NC1=O", "note": "(stereo not shown) [Example 246a]", "values": [{"measurement": "MIC Enterococcus avium (GC 4558)", "setting": "[1]", "result": 2, "unit": "µg/mL"}, {"measurement": "MIC Enterococcus faecalis (ATCC 29212)", "setting": "[1]", "result": 4, "unit": "µg/mL"}, {"measurement": "MIC Enterococcus faecalis (GC 2242)", "setting": "[1]", "result": 4, "unit": "µg/mL"}, {"measurement": "MIC Enterococcus faecalis (GC 2691)", "setting": "[1]", "result": 8, "unit": "µg/mL"}, {"measurement": "MIC Enterococcus faecalis (GC 3059)", "setting": "[1]", "result": 4, "unit": "µg/mL"}, {"measurement": "MIC Enterococcus faecalis (GC 4552)", "setting": "[1]", "result": 4, "unit": "µg/mL"}, {"measurement": "MIC Enterococcus faecalis (GC 4553)", "setting": "[1]", "result": 2, "unit": "µg/mL"}, {"measurement": "MIC Enterococcus faecalis (GC 4554)", "setting": "[1]", "result": 4, "unit": "µg/mL"}, {"measurement": "MIC Enterococcus faecalis (GC 6189)", "setting": "[1]", "result": 4, "unit": "µg/mL"}, {"measurement": "MIC Enterococcus faecium (GC 2243)", "setting": "[1]", "result": 4, "unit": "µg/mL"}, {"measurement": "MIC Enterococcus faecium (GC 4556)", "setting": "[1]", "result": 4, "unit": "µg/mL"}, {"measurement": "MIC Enterococcus faecium (GC 4557)", "setting": "[1]", "result": 2, "unit": "µg/mL"}, {"measurement": "MIC Enterococcus faecalis (ATCC 29212)", "setting": "[1]; strain ATCC 29212", "result": 4, "unit": "µg/mL"}, {"measurement": "MIC Enterococcus faecium (GC 2243)", "setting": "[1]; strain GC 2243", "result": 4, "unit": "µg/mL"}, {"measurement": "MIC Enterococcus faecalis (GC 4552)", "setting": "[1]; strain GC 4552", "result": 4, "unit": "µg/mL"}, {"measurement": "MIC Enterococcus faecalis (GC 4553)", "setting": "[1]; strain GC 4553", "result": 2, "unit": "µg/mL"}, {"measurement": "MIC Enterococcus faecalis (GC 4554)", "setting": "[1]; strain GC 4554", "result": 4, "unit": "µg/mL"}, {"measurement": "MIC Enterococcus faecium (GC 4556)", "setting": "[1]; strain GC 4556", "result": 4, "unit": "µg/mL"}, {"measurement": "MIC Enterococcus faecium (GC 4557)", "setting": "[1]; strain GC 4557", "result": 2, "unit": "µg/mL"}, {"measurement": "MIC Enterococcus avium (GC 4558)", "setting": "[1]; strain GC 4558", "result": 2, "unit": "µg/mL"}, {"measurement": "MIC Enterococcus faecalis (GC 6189)", "setting": "[1]; strain GC 6189", "result": 4, "unit": "µg/mL"}, {"measurement": "MIC Enterococcus faecalis (GC 2242)", "setting": "[1]; inoculum 5×10^5 CFU/mL, strain GC 2242", "result": 4, "unit": "µg/mL"}, {"measurement": "MIC Enterococcus faecalis (GC 2691)", "setting": "[1]; inoculum 5×10^5 CFU/mL, strain GC 2691", "result": 8, "unit": "µg/mL"}, {"measurement": "MIC Enterococcus faecalis (GC 3059)", "setting": "[1]; inoculum 5×10^5 CFU/mL, strain GC 3059", "result": 4, "unit": "µg/mL"}, {"measurement": "MIC Coagulase Negative Staphylococcus (GC 4547)", "setting": "[2]", "result": 1, "unit": "µg/mL"}, {"measurement": "MIC Coagulase Negative Staphylococcus (GC 4548)", "setting": "[2]", "result": 1, "unit": "µg/mL"}, {"measurement": "MIC Coagulase Negative Staphylococcus (GC 4549)", "setting": "[2]", "result": 1, "unit": "µg/mL"}, {"measurement": "MIC Coagulase Negative Staphylococcus (GC 4551)", "setting": "[2]", "result": 2, "unit": "µg/mL"}, {"measurement": "MIC Coagulase Negative Staphylococcus (GC 6257)", "setting": "[2]", "result": 2, "unit": "µg/mL"}, {"measurement": "MIC Staphylococcus aureus (ATCC 29213)", "setting": "[2]", "result": 2, "unit": "µg/mL"}, {"measurement": "MIC Staphylococcus aureus (GC 1131)", "setting": "[2]", "result": 4, "unit": "µg/mL"}, {"measurement": "MIC Staphylococcus aureus (GC 3051)", "setting": "[2]", "result": 1, "unit": "µg/mL"}, {"measurement": "MIC Staphylococcus aureus (GC 3053)", "setting": "[2]", "result": 2, "unit": "µg/mL"}, {"measurement": "MIC Staphylococcus aureus (GC 4541)", "setting": "[2]", "result": 1, "unit": "µg/mL"}, {"measurement": "MIC Staphylococcus aureus (GC 4542)", "setting": "[2]", "result": 1, "unit": "µg/mL"}, {"measurement": "MIC Staphylococcus aureus (GC 4544)", "setting": "[2]", "result": 2, "unit": "µg/mL"}, {"measurement": "MIC Staphylococcus aureus (GC 4545)", "setting": "[2]", "result": 2, "unit": "µg/mL"}, {"measurement": "MIC Staphylococcus aureus-SMITH (GC 4543)", "setting": "[2]", "result": 1, "unit": "µg/mL"}, {"measurement": "MIC Staphylococcus haemolyticus (GC 4546)", "setting": "[2]", "result": 1, "unit": "µg/mL"}, {"measurement": "MIC Staphylococcus aureus (ATCC 29213)", "setting": "[2]; strain ATCC 29213", "result": 2, "unit": "µg/mL"}, {"measurement": "MIC Staphylococcus aureus (GC 1131)", "setting": "[2]; strain GC 1131", "result": 4, "unit": "µg/mL"}, {"measurement": "MIC Staphylococcus aureus (GC 3051)", "setting": "[2]; strain GC 3051", "result": 1, "unit": "µg/mL"}, {"measurement": "MIC Staphylococcus aureus (GC 3053)", "setting": "[2]; strain GC 3053", "result": 2, "unit": "µg/mL"}, {"measurement": "MIC Staphylococcus aureus (GC 4541)", "setting": "[2]; strain GC 4541", "result": 1, "unit": "µg/mL"}, {"measurement": "MIC Staphylococcus aureus (GC 4542)", "setting": "[2]; strain GC 4542", "result": 1, "unit": "µg/mL"}, {"measurement": "MIC Staphylococcus aureus-SMITH (GC 4543)", "setting": "[2]; strain GC 4543", "result": 1, "unit": "µg/mL"}, {"measurement": "MIC Staphylococcus aureus (GC 4544)", "setting": "[2]; strain GC 4544", "result": 2, "unit": "µg/mL"}, {"measurement": "MIC Staphylococcus aureus (GC 4545)", "setting": "[2]; strain GC 4545", "result": 2, "unit": "µg/mL"}, {"measurement": "MIC Staphylococcus haemolyticus (GC 4546)", "setting": "[2]; strain GC 4546", "result": 1, "unit": "µg/mL"}, {"measurement": "MIC Coagulase Negative Staphylococcus (GC 4547)", "setting": "[2]; strain GC 4547", "result": 1, "unit": "µg/mL"}, {"measurement": "MIC Coagulase Negative Staphylococcus (GC 4548)", "setting": "[2]; strain GC 4548", "result": 1, "unit": "µg/mL"}, {"measurement": "MIC Coagulase Negative Staphylococcus (GC 4549)", "setting": "[2]; strain GC 4549", "result": 1, "unit": "µg/mL"}, {"measurement": "MIC Coagulase Negative Staphylococcus (GC 4551)", "setting": "[2]; strain GC 4551", "result": 2, "unit": "µg/mL"}, {"measurement": "MIC Coagulase Negative Staphylococcus (GC 6257)", "setting": "[2]; strain GC 6257", "result": 2, "unit": "µg/mL"}, {"measurement": "MIC Streptococcus agalactiae (GC 4564)", "setting": "[3]", "result": 0.5, "unit": "µg/mL"}, {"measurement": "MIC Streptococcus pneumoniae (ATCC 6301)", "setting": "[3]", "result": 0.25, "unit": "µg/mL"}, {"measurement": "MIC Streptococcus pneumoniae (GC 1894)", "setting": "[3]", "result": "<0.12", "unit": "µg/mL"}, {"measurement": "MIC Streptococcus pneumoniae (GC 4565)", "setting": "[3]", "result": 0.25, "unit": "µg/mL"}, {"measurement": "MIC Streptococcus pyogenes (GC 4563)", "setting": "[3]", "result": 0.5, "unit": "µg/mL"}, {"measurement": "MIC Streptococcus pneumoniae (ATCC 6301)", "setting": "[3]; inoculum 5×10^5 CFU/mL, strain ATCC 6301", "result": 0.25, "unit": "µg/mL"}, {"measurement": "MIC Streptococcus pneumoniae (GC 1894)", "setting": "[3]; inoculum 5×10^5 CFU/mL, strain GC 1894", "result": "<0.12", "unit": "µg/mL"}, {"measurement": "MIC Streptococcus pyogenes (GC 4563)", "setting": "[3]; inoculum 5×10^5 CFU/mL, strain GC 4563", "result": 0.5, "unit": "µg/mL"}, {"measurement": "MIC Streptococcus agalactiae (GC 4564)", "setting": "[3]; inoculum 5×10^5 CFU/mL, strain GC 4564", "result": 0.5, "unit": "µg/mL"}, {"measurement": "MIC Streptococcus pneumoniae (GC 4565)", "setting": "[3]; inoculum 5×10^5 CFU/mL, strain GC 4565", "result": 0.25, "unit": "µg/mL"}, {"measurement": "MIC Escherichia coli (ATCC 25922)", "setting": "[4]", "result": 16, "unit": "µg/mL"}, {"measurement": "MIC Escherichia coli (GC 4559)", "setting": "[4]", "result": 16, "unit": "µg/mL"}, {"measurement": "MIC Escherichia coli (GC 4560)", "setting": "[4]", "result": 2, "unit": "µg/mL"}]}]}
